For series [1], the system named is Ehrlich ascites carcinoma. Briefly: In vivo antitumor activity, Ehrlich ascites carcinoma model. Further details: species or system mice (Mus musculus). Conditions: 12.5 mg/kg i.p., seven days. An excerpt: Ehrlich ascites carcinoma was generously provided by Pharmacology and Toxicology Division, CPQBA, UNICAMP (Paulínia, São Paulo, Brazil). The cells were maintained in the peritoneal cavities of Swiss mice in the Dr. Thomas George Bioterium (Research Institute in Drugs and Medicines/Federal University of Paraíba, João Pessoa, Brazil).
Female Swiss albino mice (Mus musculus) weighing between 28 and 32 g, with an approximate age of 60 days and obtained from the Dr. Thomas George Bioterium (Research Institute in Drugs and Medicines/Federal University of Paraíba, Paraíba, Brazil) were used. The animals were grouped in polyethylene cages containing six animals, with free access to food (Purina® feed pellets, St. Louis, MO, USA) and water. The animals were kept under controlled conditions (21 ± 1 °C, 12 h/12 h off light/dark cycle). All experiments were approved by the Committee on Ethical Use of Animals in Research (CEUA) of Federal University of Paraíba, Brazil, certified by number 093/2017.
Mice were inoculated with 4 × 10^6 cells/mL of Ehrlich tumor cells (0.5 mL/animal), intraperitoneally (i.p.). After 24 h, mice were divided into […] (n = 6/group) and treated with vehicle alone (12% (v/v) Tween 80 in saline), 5-FU (standard drug, 25 mg/kg), or ACS03 (3.125, 6.25, 12.5, or 25 mg/kg) for seven consecutive days (i.p.). […]

Series [2] deals with HaCat (Human immortalized keratinocytes cell line). Kind of series: MTT cytotoxicity assay, HaCat non-tumor cells. The following applies: 72 h. The class given is cell-based. An excerpt:
Colorectal carcinoma cells (HCT-116), chronic myelogenous leukemia (K562), and acute promyelocytic leukemia (HL-60) were generously provided by Dr. Manoel de Moraes (Federal University of Ceará, Fortaleza, Brazil) and cultured in Roswell Park Memorial Institute 1640 (RPMI 1640; Sigma Aldrich, St. Louis, MO, USA) medium supplemented with 10% fetal bovine serum (GIBCO, Grand Island, NY, USA) and 1% penicillin–streptomycin (Sigma Aldrich, St. Louis, MO, USA). […]
MTT (3-(4,5-dimethylthiazol-2-yl)-2,5-diphenyltetrazolium bromide) reduction assay was used to evaluate the cytotoxicity of ACS03 and its precursors (2-amino-5,6,7,8-tetrahydro-4H-cyclohepta[b]thiophene-3-carbonitrile and 6,9-dichloro-2-methoxyacridine) against tumor and non-tumor cell lines and PBMC. […] The optical density was measured using a microplate spectrophotometer reader (Microplate reader BioTek Instruments, Sinergy HT, Winooski, VT, USA) at λ = 570 nm and used to calculate the IC50 (half maximal inhibitory concentration).

Series [3] relates to LDH (Lactate dehydrogenase). Kind of series: LDH activity in zebrafish larvae. The class given is in vivo. Conditions: 96 h, control 316.6 ± 1.28. The protocol:
The FET test was repeated for ACS03 under the same conditions described above, but this time the embryos were independently exposed to three concentrations (10, 20, and 40 µM). At the end of the exposure period (96 h), the larvae were quickly frozen in a ratio of 1 larva per 100 µL of 0.1 M sodium phosphate buffer, pH 7.4.
Larval groups from each of the three tested concentrations and a negative control group (exposed to E3 medium only) were macerated using 1:9 (w/v) cold 0.9% NaCl solution. The homogenates were centrifuged at 10,000× g for 10 min at 4 °C, and the resulting supernatants were used for the measurement of soluble protein content and enzyme activity. The activities of acetylcholinesterase (AChE), glutathione S-transferase (GST), and lactate dehydrogenase (LDH) were measured according to Domingues et al. (2010). Tests were done in quadruplicate for each enzyme.

In the next series the test system is erythrocytes. More on the design: method as in PMID 29415325. The following applies: cited from earlier work.

One may read the IC50 as the concentration at which inhibition is half-maximal. Read a low IC50 as greater potency in that assay. In the case of `COc1ccc2nc3cc(Cl)ccc3c(Nc3sc4c(c3C#N)CCCCC4)c2c1` [ACS03, 2-((6-Chloro-2-methoxyacridin-9-yl)amino)-5,6,7,8-tetrahydro-4H-cyclohepta[b]-thiophene-3-carbonitrile], the cell viability in series [1] (trypan blue, control 115.5 ± 23.97) was 4.12 ± 1.28 × 10^6 cells/mL. In addition, in series [1] (control 6.93 ± 0.79 mL), the tumor volume came to 0.0 mL. Besides, the IC50 in series [2] is 62.2 ± 1.15 µM. Moreover, the LDH activity stood at 378.44 ± 0.58 in series [3] (20 µM) and 426.74 ± 0.79 in series [3] (40 µM). For the same compound, in the series on erythrocytes, the cytotoxicity against erythrocytes result was “no cytotoxicity”.

The values above are taken from publication PMC6983054, “Toxicity and Antitumor Activity of a Thiophene–Acridine Hybrid” (Molecules, 2019).
